According to article PMC10587159, “Biosynthesis and engineering of the nonribosomal peptides with a C-terminal putrescine” (Nature Communications, 2023):
Read-outs that look alike come from different tables or passages of the source. Non-standard residues stand in square brackets, D forms with d. Residues, ends and D or L forms follow the SMILES beside them. *: point of attachment. dMet(O) = CS(=O)CC[C@@H](N)C(=O)O; Lauroyl = CCCCCCCCCCCC(=O)*; Octanoyl = CCCCCCCC(=O)*; NH(CH2)4NH2 = NCCCCN*

Experiments:
PvdQ-like acylase GdnD = test: Deacylation by acylase GdnD (cell lysate, LC-MS); format: biochemical, Schlegelella brevitalea DSM 7029; details: 100 μL E. coli cell lysate with GdnD, 5 μL 10 mM substrate, 30 °C; 7 and 8: 4 h, 16 h, 27 h; other substrates 16 h; boiled lysate as control
Experimental: The hydrolysis function of PvdQ-like acylase GdnD was tested. GdnD is predicted to be a periplasmic protein by PSORTb[13]. The collected pellet from 50 mL LB dissolved with 8 mL buffer C (50 mM Tris, 300 mM NaCl, 5 mM MgCl2, pH 7.6), and lysed by cell disruption. Then, one hundred microliter of the cell lysate was incubated with 5 μL 10 mM substrates 7 and 8 for 4 h, 16 h, and 27 h at 30 °C. The negative control was boiled cell lysate. The other substrates (13, 14, 15, 16, and 17) incubated with the cell lysate dealt for 16 h at 30 °C. Then, the reaction was stopped by the addition of the 100 μL MeOH, and the final mixture was checked by LC‒MS analysis (5%‒95% ACN in 15 min) according to the above condition.

[1] = test system: human lung adenocarcinoma cell A549; test: MTT cytotoxicity assay, A549; format: cell-based
Description: (§1) The two human acute lymphoblastic leukemia cells K562 and Kasumi, two human breast adenocarcinoma cells MCF7 and MDA-MB-231, human hepatoma cell HepG-2, human lung adenocarcinoma cell A549, human gastric cancer cell SGC-7901, human colon cancer cell HCT-116, human ovarian cancer cell line SKOV3, or human lung epithelial normal cell 2B were obtained from Beyotime Biotechnology and utilized to test the cytotoxicity of compounds by MTT assays as previous study. The anti-inflammatory effect of the compounds was detected by the influence on the increase in the level of nitric oxide caused by lipopolysaccharide (LPS) based on the classic Griess method. RAW 264.7 cells (Shanghai Institutes for Biological Science) were seeded in 96-well plates and incubated for 24 h. Then, cells were treated with compounds 29, 29a, 31, and 31a (0-80 μM) for 30 min, followed by co-treatment with LPS ([…]) for another 24 h. The Nitric Oxide assay kit with Griess reagents (Beyotime, Lot: S0021, Shanghai, China) was used to examine cellular supernatant nitrite accumulation, which represents cellular NO levels. The OD value of 540 nm absorbance was detected with a microplate reader. Their authentication in the laboratory was performed regularly based on morphology and gene/protein expression. The tested micro-organisms including Gram-negative bacteria E. coli ATCC 35218 and Pseudomonas aeruginosa ATCC 27853, and Gram-positive bacteria Staphylococcus aureus ATCC 29213 and B. subtilis ATCC 6633, and fungi Candida albicans, Rhizoctonia solani and Aspergillus fumigatus were treated with different concentrations of compounds (1 μM, 10 μM, 100 μM) using Bauer-Kirby disk diffusion method to evaluate the antimicrobial activities.

[2] = test system: S. brevitalea DSM 7029 wild type; test: Biofilm formation of DSM 7029 wild type with compounds (crystal violet); format: cell-based, Schlegelella brevitalea DSM 7029; details: relative to wild type treated with H2O = 100%; crystal violet 0.1%, OD600; mean of n = 3
Experimental: The growth curve was tested by Bioscreen C (Labsystems, Finland) as follow. Overnight culture was inoculated into 400 μL fresh CYMG medium in the ratio of 1:100 (the concentration of compounds was 0.1 μg/μL) and shook in normal speed. The OD600 value was gained in every hour for 42 h in total. Biofilm formation was measured at 18 h and 36 h respectively, as reported previously. In brief, the free-floating cells were removed, and the microtitre plate was washed with PBS (pH 7.4) after incubation for 18 h and 36 h. The biofilm was stained by adding 200 µL of crystal violet (0.1%) solution. Crystal violet solution was removed after 15 min and 200 µL of ethanol (95%) was added. The absorbance at OD600 was read using a microplate reader (Infinite M200, Tecan, Männedorf, Switzerland). Meanwhile, free-floating cells were used to test the secretion of pigment. The bacteria were removed and the supernatant was measured at OD600.

[3] = test system: human hepatoma cell HepG-2; test: cells; format: cell-based
Description: as §1

[4] = test system: human lung epithelial normal cell 2B; test: cells; format: cell-based
Description: as §1

[5] = test system: human breast adenocarcinoma cells MDA-MB-231; test: cells; format: cell-based
Description: as §1

[6] = test system: C13 domain of GdnB fragments and mutants; test: Condensation of T12-linked L-Ala with Put or other diamines (yield of 24a-27a, LC-MS); format: biochemical, Schlegelella brevitalea DSM 7029; details: Average of n = 3
Experimental: In vitro assays for the different enzymes of the C-terminal multi-domains were performed. Reaction buffer contained 80 μM protein, 3 μM Sfp from B. subtilis, 200 μM CoA, 2.5 mM L-Ala and 5 mM ATP was incubated at 30 °C for 30 min. Then, 2.5 mM diamines or polyamines (i.e. putrescine, 1,7-diaminoheptane, 1,6-diaminohexane, 1,5-diaminopentane, 1,2-diaminocyclohexane, spermine, and spermidine, respectively) was added to make final volume of 200 μL. The reaction was further incubated at 30 °C for 1 h or 4 h. Triple amount of cold methanol was added to quench the reaction, and the supernatant was dried by SpeedVac after removed the precipitate at 10,000 × g for 8 min. The reaction mixture was dissolved with 200 μL ddH2O, and then the mixture was derived with D-FDAA according to the procedure of the above Marfey’s analysis. The final reaction mixture was suspended using 100 μL 2 M HCl, which subsequently was dried by SpeedVac. Finally, the mixture dissolved with 100 μL MeOH to detect the target products (24a, 25a, 26a, and 27a) using LC‒MS analysis (5%‒95% ACN in 15 min).

tumor lines = test: MTT cytotoxicity assay, statements on the whole panel; format: cell-based, human
Description: as §1

[7] = test system: human ovarian cancer cell line SKOV3; test: cells; format: cell-based
Description: as §1

human cells Kasumi = test: MTT cytotoxicity assay, Kasumi; format: cell-based; details: Homo sapiens; MTT assay; Supplementary Table 11; read-out: IC50 Kasumi
Description: as §1

[8] = test system: human colon cancer cell HCT-116; test: cells; format: cell-based; details: Homo sapiens, HCT-116; MTT assay; Supplementary Table 11; read-out: IC50 HCT116
Description: as §1

[9] = test system: human gastric cancer cell SGC-7901; test: cells; format: cell-based; details: Homo sapiens, SGC-7901; MTT assay; Supplementary Table 11; read-out: IC50 SGC-7901
Description: as §1

[10] = test system: human breast adenocarcinoma cells MCF7; test: cells; format: cell-based; details: Homo sapiens, MCF7; MTT assay; Supplementary Table 11; read-out: IC50 MCF-7
Description: as §1

[11] = test system: human acute lymphoblastic leukemia cells K562; test: cells; format: cell-based; details: Homo sapiens, K562; MTT assay; Supplementary Table 11; read-out: IC50 K562
Description: as §1

`CCCCCCCCCCCC(=O)N[C@H](CC[S+](C)[O-])C(=O)N[C@H](CC(N)=O)C(=O)N1CCC[C@H]1C(=O)N[C@H](C(=O)N[C@H](Cc1ccccc1)C(=O)N1CCC[C@H]1C(=O)N[C@@H](Cc1c[nH]c2ccccc12)C(=O)N[C@@H](C(=O)N[C@@H](C)C(=O)N[C@H](C)C(=O)N[C@@H](CO)C(=O)N[C@@H](C)C(=O)NCCCCN)C(C)C)C(C)C` (stereo partly shown) [Compound 8, Glidonin H] (Lauroyl-[dMet(O)][dN]PV[dF]PW[dV]A[dA]SA-{NH(CH2)4NH2}) was tested, and the “deacylation by GdnD, nonacylated product by LC-MS” value (PvdQ-like acylase GdnD) was “nonacylated products 1 and 2 were detected”, the IC50 ([1]; 24 h) was greater than 20 µM and the “biofilm formation 18 h, Average” value [2] was 153.143%. The “biofilm formation 36 h, Average” value [2] was 147.847%, the IC50 ([3]; 24 h) was greater than 20 µM and the IC50 ([4]; 24 h) was greater than 20 µM. The IC50 ([5]; 24 h) was greater than 20 µM.
With `CC(N)C(=O)NCCCCCCCNc1cc(NC(C)C(N)=O)c([N+](=O)[O-])cc1[N+](=O)[O-]` (stereo not shown) [Compound 27a] the “L-Ala condensing with Put, 1,5-diaminopentane, 1,6-diaminohexane, and 1,7-diaminoheptane (Relative Yield of product)” value ([6]; protein A12T12) was 100 and the “L-Ala condensing with Put, 1,5-diaminopentane, 1,6-diaminohexane, and 1,7-diaminoheptane (Relative Yield of product)” value ([6]; protein A12T12C13A*T13) was 248.895.
In the case of `CCCCCCCC(=O)N[C@@H](CC(C)C)C(=O)N[C@H](C(=O)N[C@@H](Cc1ccc(O)cc1)C(=O)N[C@H](C)C(=O)N[C@@H](C)C(=O)N[C@H](C)C(=O)N[C@H](C(=O)NCCCCN)C(C)C)[C@@H](C)O` [Compound 29] (Octanoyl-LTY[dA]A[dA]V-{NH(CH2)4NH2}), the IC50 ([1]; 24 h) is reported as 39.92 ± 0.15 µM, the “cytotoxic / antitumor activity in words” value (tumor lines) is reported as “higher anti-inflammatory and antitumor activities than 29a and 31a” and the IC50 (tumor lines; 24 h) is reported as greater than 40 µM. The IC50 ([3]; 24 h) was 265.5 ± 2.43 µM, the IC50 ([4]; 24 h) was 102.4 ± 0.25 µM and the IC50 ([5]; 24 h) was 110 ± 2.6 µM. It also gave an IC50 ([7]; 24 h) of 81.4 ± 1.02 µM.
`CCCCCCCC(=O)N[C@@H](CC(C)C)C(=O)N[C@H](C(=O)N[C@@H](Cc1ccc(O)cc1)C(=O)N[C@H](C)C(=O)N[C@@H](C)C(=O)N[C@H](C)C(=O)N[C@H](C(=O)O)C(C)C)[C@@H](C)O` [Compound 29a, octanoyl-L-Leu-L-Thr-L-Tyr-D-Ala-L-Ala-D-Ala-L-Val] (Octanoyl-LTY[dA]A[dA]V-OH) was tested, and the IC50 ([1]; 24 h) was 82.2 ± 2.58 µM, the IC50 ([3]; 24 h) was 267.5 ± 0.01 µM and the IC50 ([4]; 24 h) was 269.4 ± 1.23 µM. It also gave an IC50 ([7]; 24 h) of 161 ± 3.67 µM.
`CCCCCCCC(=O)N[C@H](C(=O)N[C@@H](Cc1ccccc1)C(=O)N[C@@H](CCC(=O)O)C(=O)N[C@H](C(=O)N[C@@H](C)C(=O)O)[C@@H](C)CC)C(C)C` [Compound 31a] (Octanoyl-VFEIA-OH; C-terminus assumed) showed an IC50 ([1]; 24 h) of 453.4 ± 0.68 µM, an IC50 ([3]; 24 h) of 94.29 ± 0.19 µM and an IC50 ([4]; 24 h) of 92.26 ± 0.03 µM. The IC50 ([5]; 24 h) was 200.5 ± 0.07 µM and the “IC50 SKOV3” value ([7]; MTT assay, Supplementary Table 12, n.s. indicates negative significance) was “n.s”.
Work on `COc1cccc2c1C(=O)c1c(O)c3c(c(O)c1C2=O)C[C@@](O)(C(=O)CO)C[C@@H]3O[C@H]1C[C@H](N)[C@H](O)[C@H](C)O1` [doxorubicin, reference compound] yielded an IC50 (human cells Kasumi) of 0.42 ± 0.1 µM, an IC50 ([1]; Homo sapiens, A549, MTT assay, Supplementary Table 11, read-out: IC50 A549) of 0.82 ± 0.25 µM and an IC50 ([1]; Homo sapiens, A549, MTT assay, Supplementary Table 12, read-out: IC50 A549) of 0.73 ± 0.05 µM. The IC50 [8] was 0.59 ± 0.04 µM, the IC50 [9] was 0.14 µM and the IC50 [10] was 2.6 ± 0.34 µM. It also gave an IC50 ([3]; Homo sapiens, HepG2, MTT assay, Supplementary Table 11, read-out: IC50 HepG2) of 3.21 ± 0.67 µM, an IC50 ([3]; Homo sapiens, HepG2, MTT assay, Supplementary Table 12, read-out: IC50 HepG-2) of 0.23 ± 0.02 µM and an IC50 [11] of 0.79 ± 0.34 µM. The IC50 ([4]; Homo sapiens, MTT assay, normal cell, Supplementary Table 11, read-out: IC50 2B) was 1.32 ± 0.11 µM, the IC50 ([4]; Homo sapiens, MTT assay, normal cell, Supplementary Table 12, read-out: IC50 2B) was 1.34 ± 0.09 µM and the IC50 ([5]; Homo sapiens, MDA-MB-231, MTT assay, Supplementary Table 11, read-out: IC50 MDA-MB-231) was 0.63 ± 0.07 µM. For the same compound, the IC50 ([5]; Homo sapiens, MDA-MB-231, MTT assay, Supplementary Table 12, n.s. indicates negative significance, read-out: IC50 MDA-MB-231) was 0.91 ± 0.05 µM and the IC50 ([7]; Homo sapiens, SK-OV-3, MTT assay, Supplementary Table 12, n.s. indicates negative significance, read-out: IC50 SKOV3) was 1.29 ± 0.01 µM.
In the case of “C14-Rhizomide A [Compound 17, reference compound]”, the “deacylation by GdnD, nonacylated product by LC-MS” value (PvdQ-like acylase GdnD) is reported as “could remove myristoyl”.
